In EP0327365B1, “Improvements in or relating to modified haptens useful as imaging and therapeutic agents” (HYBRITECH INCORPORATED, priority 1988, dated 1989):

Experiments:
T-380 tumors [1] = assay: Hapten biodistribution, premix protocol with bifunctional antibody ECH037.2; assay type: in vivo, nude mice; parameters: TOTAL RECOV: unit not given here; settings: for % DOSE PER GRAM, KIDNEY / % DOSE PER GRAM, LIVER / % DOSE PER GRAM, TUMOR / FECES / TOTAL RECOV / URINE / % DOSE PER GRAM, BLOOD / TUMOR/BLOOD: premix with 20 µg ECH037.2; for % DOSE PER GRAM, BLOOD: 111In-labeled hapten i.v.; for TUMOR/BLOOD: ratio; for Percent Injected Dose in Feces: premix protocol (Table VI)
Description: (§1) Two protocols were used for examining the biodistribution of the derivatized haptens in the presence of the bifunctional antibody ECH037.2. In a premix protocol, ECH037.2 and the derivatized hapten were combined prior to injection in the animals. In the prelocalization protocol, ECH037.2 was injected into the animals, and the antibody was allowed to prelocalize for 24 hours prior to injection of the radiolabeled hapten.
(§2) Biodistribution studies were performed in nude mice carrying subcutaneous implants of the human colon carcinoma cell line T-380 which expresses the carcinoembryonic antigen (CEA) recognized by ECH037.2. Briefly, Balb/C Nu/Nu mice were injected subcutaneously with a minced preparation of T-380 tumor implants and maintained for approximately two weeks, or until the tumor implant had grown to a size of approximately 0.5 grams as described by Hagan, P.L., et al. J. Nuc. Med., 26 1418-1423 (1985). Mice were kept in a sterile environment to prevent complications due to bacterial or viral infections. Biodistributions were performed as described by Halpern, S., et al., Cancer Res. 43, 5347-5355 (1983). Briefly, the radiolabeled haptens were injected intravenously in […], and the pharmacokinetics were evaluated at several time points post-injection. At these times, mice were sacrificed and weighed. Organs were removed, their weight recorded, and each organ was then washed in sterile PBS, pH 7.0, and fixed in formalin solution. Samples of blood, urine and feces also were collected and their weight similarly recorded. The organs, or a portion thereof, were transferred to clean tubes and their radioactive content was determined in a well-type gamma-counter.
(§3) Relative radioactive content of each organ was expressed as a percentage of injected dose per organ.
To indium-label the haptens of the invention 10 »l of 0.1 mM ligand was combined with X »l of ¹¹¹InCl₃ (in 50 mM HCl) and (x+10) »l of 0.26 M ammonium citrate, pH 6.0. X is calculated by the following equation: X = (200 »Ci)/(A »Ci/»l) [formula] where A is the specific activity of the ¹¹¹In.
The labeling was done in an acid-washed microfuge tube. After combining all of the components above, the solution was vortexed and allowed to stand at room temperature for 15 minutes.
Incorporation of the ¹¹¹In into the chelating agent was determined by TLC on silica in a methanol/aqueous ammonium acetate solvent system as described by Meares, et al. (Anal. Biochem., 142, 68-75 (1984)). Greater than 95% incorporation of the radioactivity into the chelate was required for the sample to be submitted for a biodistribution assay.
Prior to injection the ¹¹¹In-labeled hapten was diluted into freshly prepared isotonic sodium bicarbonate (1.39% w/v) containing 1 mg/ml normal human serum albumin (Buminate, 25% solution, Travenol Laboratories, Glendale, California) to which the bifunctional antibody had been added. The final composition of the solution was 0.2 mg/ml ECH037.2, 0.5 »M chelate, 0.1 »Ci/»l ¹¹¹In, all in a volume of 2.0 ml. For the biodistribution studies, 100 »l of the solution was injected into the tail vein of each animal.

[2] = Aqueous solubility (observation during synthesis); assay type: physicochemical; settings: metal-free chelating agent, in words
[3] = system: monoclonal antibody CHA255; assay: Determination of hapten-antibody dissociation rates; assay type: binding, BALB/c mice; settings: 22°C; indium complex of hapten from CHA255 after 100 fold excess of indium-115 loaded hapten
Description: Hapten-antibody dissociation rates were determined using monoclonal antibody CHA255, prepared as described in Example 2A, by measuring the quantity of ¹¹¹In³⁺ chelate released from the antibody hapten complex as a function of time after addition of a 100 fold excess (over antibody binding sites) of indium-115 loaded hapten. Thus, for each hapten, a 700 »l solution was prepared containing: antibody at a concentration of 160 nM; indium loaded hapten, trace labeled with ¹¹¹In (total concentration = 160 nM); normal human serum albumin at a total concentration of 1.5 mg/mL; and isotonic phosphate buffered saline, (10 mM PO₄²⁻, 150 mM NaCl, pH 7.2). Indium-115 loaded hapten was added to a final Concentration of […]. Reactions were stirred by placing the sample containers ir a rack mounted on a vortexer head.
At various times after addition of the excess hapten, […] portions of the reaction solutions were transferred to Centrifree tubes (Amicon Corperation, Danvers, Massachusetts) and centrifuged at 1500xg for eight to ten minutes. The reaction time was taken to be the time between addition of the excess hapten and the time the centrifuge reached the desired velocity. Six timepoints, each in duplicate, were obtained over a range of about two reaction half-lives for each rate constant determination. A 200 »l portion from each centrifuged and uncentrifuged solution was then counted for ¹¹¹In. The relative concentration of free hapten was taken to be the ratio of counts in the centrifuged solution to the uncentrifuged solution at each timepoint. Times were recorded to the nearest tenth of a minute.
Room temperature rate constants were measured without the aid of a constant temperature bath. The ambient temperature remained at 22°±1 C.
Rate constants and standard deviations were obtained from a plot of the logarithm of relative complex concentration vs. time. Data were analyzed using the linear regression module of the RS/1 Program (BBN Software Products Corporation, Cambridge, Massachusetts).
Control samples were included in each experiment to determine: A) that the initial condition of 100% of labeled hapten bound to antibody was met, and B) that in the absence of antibody, 100% of counts were able to penetrate the Centrifree membrane. […]

T-380 tumors [4] = assay: Hapten biodistribution, prelocalization protocol with bifunctional antibody ECH037.2; assay type: in vivo, nude mice
Description: as §1, §2, §3
To indium-label the chelating agents for the prelocalization protocol, 5 »l of 0.1 mM chelating agent was combined with X »l of ¹¹¹InCl₃ (in 50 mM HCl) and (x+5) »l of 0.26 M ammonium citrate, pH 6.0. X was calculated by the following equation: X = 200 »Ci/A »Ci/»l [formula] where A is the specific activity of the ¹¹¹InCl₃ solution. The solution was vortexed and allowed to stand at room temperature for 15 minutes, after which incorporation of ¹¹¹In label into the chelating agent was determined as described for the premix protocol. If at least 95 percent of the ¹¹¹In was bound by the chelating agent, the material was then diluted to a final volume of 2 ml with isotonic (1.39 percent, w/v) sodium bicarbonate containing 1 mg/ml normal human serum albumin. This material (100 »l) then was injected into each tail vein of mice which had each been injected 24 hours earlier with 5 »g of ECH037.2 in 100 »l isotonic sodium bicarbonate containing 1 mg/ml normal human serum albumin.

antibody CHA255 = assay: Antibody CHA255 binding assay (Centrifree ultrafiltration); parameters: species or system BALB/c mice; settings: ⁹⁰Y³⁺ or ¹¹¹In³⁺ chelate of DTPA alone
Description: As indicated, the monoclonal antibody CHA255 is specific for the In³⁺-benzyl EDTA complex. The affinity and characterization have been described previously in Nature, 316, 265 (1985). Binding assays were performed to verify the identity of the haptens designated as DB-I to DB-VIII. […] For the ⁹⁰Y³⁺ hapten chelate, in particular, CHA255 binding required the presence of the In-benzyl-EDTA moiety as provided in the compounds of the invention. The labeled DB hapten chelates were combined with antibody CHA255 in PBS (10 mM sodium phosphate, 150 mM sodium chloride, pH 7.4) containing 44 »g/ml of human serum albumin and 0.05% Triton-X-100 detergent. Concentrations of the radiolabeled hapten chelating agent and antibody are 5 nM and 133 nM, respectively. The mixture is vortexed and allowed to stand at room temperature for 15 minutes, after which it is transferred to an Amicon Centrifree™ device, with a NMW limit of 30,000, and centrifuged to separate antibody-bound chelate from free hapten chelate. The species bound to the antibody is retained by the membrane and the free chelate flows through the membrane into the filtrate. The extent of antibody-hapten chelate binding is then determined.

SMILES | % DOSE PER GRAM, KIDNEY (T-380 tumors [1]; 24 hours) | % DOSE PER GRAM, LIVER (T-380 tumors [1]; 24 hours) | % DOSE PER GRAM, TUMOR (T-380 tumors [1]; 24 hours) | FECES (T-380 tumors [1]; 24 hours) | TOTAL RECOV (T-380 tumors [1]; 24 hours) | URINE (T-380 tumors [1]; 24 hours) | % DOSE PER GRAM, BLOOD (T-380 tumors [1]; 24 hours) | TUMOR/BLOOD (T-380 tumors [1]; 24 hours) | Percent Injected Dose in Feces (T-380 tumors [1]; 24 hrs.) | % DOSE PER GRAM, KIDNEY (T-380 tumors [1]; 48 hours) | % DOSE PER GRAM, LIVER (T-380 tumors [1]; 48 hours) | % DOSE PER GRAM, TUMOR (T-380 tumors [1]; 48 hours) | FECES (T-380 tumors [1]; 48 hours) | TOTAL RECOV (T-380 tumors [1]; 48 hours) | URINE (T-380 tumors [1]; 48 hours) | % DOSE PER GRAM, BLOOD (T-380 tumors [1]; 48 hours) | TUMOR/BLOOD (T-380 tumors [1]; 48 hours) | Percent Injected Dose in Feces (T-380 tumors [1]; 48 hrs.) | other results
CCCCCCCCNC(=S)Nc1ccc(CC(CN(CC(=O)O)CC(=O)O)N(CC(=O)O)CC(=O)O)cc1 (stereo not shown) [OTUBE] | 0.5 % DOSE PER GRAM | 0.8 % DOSE PER GRAM | 1.1 % DOSE PER GRAM | 56.5% of total injected dose | 68.9 | 8.9% of total injected dose | 1.1 % DOSE PER GRAM | 1.00 | 56.5 Percent Injected Dose | 0.2 % DOSE PER GRAM | 0.6 % DOSE PER GRAM | 0.7 % DOSE PER GRAM | 68.4% of total injected dose | 81.4 | 10.9% of total injected dose | 0.5 % DOSE PER GRAM | 1.40 | 68.4 Percent Injected Dose | amount of hapten in the tumor (T-380 tumors [1]; 24 hrs., premix protocol): 1.1 percent injected dose/gram; injected material excreted in the feces (T-380 tumors [1]; 48 hrs. post injection, premix protocol): 68.4% of the injected material; amount of hapten in the tumor (T-380 tumors [1]; 48 hrs., premix protocol): 0.7 percent injected dose/gram; aqueous solubility [2]: Low aqueous solubility
O=C(O)Cc1ccc(NC(=S)Nc2ccc(CC(CN(CC(=O)O)CC(=O)O)N(CC(=O)O)CC(=O)O)cc2)cc1 (stereo not shown) [PHATUBE] | 1.2 % DOSE PER GRAM | 1.7 % DOSE PER GRAM | 8.4 % DOSE PER GRAM | 22.0% of total injected dose | 59.7 | 21.7% of total injected dose | 6.2 % DOSE PER GRAM | 1.35 | 22.0 Percent Injected Dose | 0.8 % DOSE PER GRAM | 1.1 % DOSE PER GRAM | 6.9 % DOSE PER GRAM | 34.9% of total injected dose | 66.4 | 22.4% of total injected dose | 3.7 % DOSE PER GRAM | 1.86 | 34.9 Percent Injected Dose | t1/2, Dissociation Half-Lives [3]: 1.19 h; fecal excretion (T-380 tumors [4]; 5 µg ECH037.2 24 hours earlier, all time points (4, 24, 48 hours), Figures 3-5, in words): high degree of fecal excretion; tumor/organ values (T-380 tumors [4]; Figures 6-8 (4, 24, 48 hours), in words): exceptional
O=C(O)CN(CCN(CC(=O)O)CC(=O)O)CCN(CC(=O)O)CC(=O)O [DTPA, diethylenetriaminepentaacetic acid] |  |  |  |  |  |  |  |  |  |  |  |  |  |  |  |  |  |  | binding to CHA255 (antibody CHA255): neither ⁹⁰Y³⁺ or ¹¹¹In³⁺ DTPA, alone, bound to CHA255
O=C(O)CN(CC(=O)O)CC(Cc1ccc(NC(=S)NCCO)cc1)N(CC(=O)O)CC(=O)O (stereo not shown) [EOTUBE] | 2.8 % DOSE PER GRAM | 3.8 % DOSE PER GRAM | 12.5 % DOSE PER GRAM | 6.2% of total injected dose |  | 25.9% of total injected dose | 9.3 % DOSE PER GRAM | 1.34 | 6.2 Percent Injected Dose | 1.4 % DOSE PER GRAM | 3.1 % DOSE PER GRAM | 14.5 % DOSE PER GRAM | 7.9% of total injected dose |  | 49.3% of total injected dose | 4.7 % DOSE PER GRAM | 3.09 | 7.9 Percent Injected Dose | tumor uptake (T-380 tumors [1]; premix protocol, Figure 1 (24 and 48 hours), in words): outstanding tumor uptake; tumor/blood ratios (T-380 tumors [1]; premix protocol, Figure 2 (24 and 48 hours), in words): good tumor/blood ratios; tumor/organ ratios (T-380 tumors [4]; 24 hours (Figure 7), in words): high tumor/organ ratios; tumor uptake (T-380 tumors [4]; all time points (Figures 3-5), in words): high tumor uptake at all time points
